Literature values, collected in patent US12357650B2, “Methods and compositions for cancer therapies that include delivery of halogenated thymidines and thymidine phosphorlylase inhibitors in combination with radiation” (Shuttle Pharmaceuticals, Inc., priority 2017, dated 2025).

Tested on: cells
Conditions: as compared to cells without the defective DNA; cited from earlier work

SMILES: O=c1[nH]c(=O)n([C@H]2C[C@H](O)[C@@H](CO)O2)cc1Br [BUdR, 5-bromo-2′-deoxyuridine]
- increase in susceptibility of cells to the lethal effects of RT: two-three fold
